Assay results taken from US10201587B2, “Methods of inhibiting and treating biofilms using glycopeptide antibiotics” (MELINTA THERAPEUTICS, INC., priority 2008, dated 2019).

Key:
MRSA ATCC 33591 = assay: Time-kill in nutrient-depleted CAMHB; assay type: cell-based, S. aureus; details: stationary-phase, free-trough concentration 0.5 μg/mL, 24 hours
Protocol: (§1) Nutrient-depleted CAMHB from each respective strain was prepared by 3 rounds of inoculation of CAMHB with exponential-phase bacteria, incubation overnight at 37° C. with rotation (225 rpm) and centrifugation (8000×g for 30 minutes) to remove bacteria. After the final round of inoculation, growth and centrifugation, the pH of the nutrient-depleted CAMHB was adjusted to pH=7.0 and the spent medium was filter-sterilized using a […] membrane (Corning Incorporated, Corning, N.Y.).
(§2) Nutrient-depleted CAMHB containing diluted antimicrobial agents was inoculated with stationary-phase bacteria from overnight cultures of the S. aureus strains at approximately 10^7 colony-forming units (CFU)/mL. Other experiments compared the killing of stationary- and exponential-phase S. aureus ATCC 29213 when inoculated into nutrient-depleted CAMHB containing the test agents. For assays involving daptomycin, nutrient-depleted CAMHB was supplemented with 50 μg/ml CaCl2 (8). All time-kill studies were performed in 96-well deep-well plates at 37° C. with rotation (225 rpm) in a total volume of 750 μL. Bacteria were enumerated by serial-dilution plating. Bacteriostatic and bactericidal activity of the antimicrobial agents were defined as a reduction in viable cell counts of <3 or ≥3 log at 24 hours relative to the starting inoculum, respectively (33). Experiments were repeated at least three times and produced similar results; results from one experiment are presented.

MSSA ATCC 29213 [1] = assay: Time-kill in nutrient-depleted CAMHB; assay type: cell-based, S. aureus; details: stationary-phase, estimated free-trough concentration 0.5 μg/mL, 24 hours
Protocol: as §1, §2

VRSA VRS5 = assay: Time-kill in nutrient-depleted CAMHB; assay type: cell-based, S. aureus
Protocol: as §1, §2

S. aureus ATCC 29213 [2] = assay: Membrane depolarization, DiSC3(5) fluorescence; assay type: cell-based; details: 30 min
Protocol: Bacteria were grown overnight in CAMHB and sub-cultured the following day in CAMHB to exponential phase (OD600≈0.25). Exponential- and stationary-phase cells were washed in membrane assay buffer with or without 5 mM glucose, respectively, and resuspended at an OD600=0.25. DiSC3(5) was added to a final concentration of 1.5 μM and the solution was incubated in the dark at ambient temperature for 30 minutes to allow loading of the fluorescent dye into cell membranes. After the loading period, cells were diluted 50-fold (OD600=0.005) in depolarization buffer with or without glucose for exponential- or stationary-phase cells, respectively. Assays were initiated by the addition of antimicrobial agents over a range of concentrations and were monitored in real time by fluorescence spectroscopy (λex=612, λem=665) for a period of 30 minutes. […] Experiments were repeated three times and produced similar results; results from one assay are presented.

[3] = system: Staphylococcus epidermidis ATCC 35984; assay: Prevention of in vitro biofilm formation on coated silicone tubing; assay type: cell-based; details: silicone tubing incubated overnight in 20 mg/ml solution; inoculum 10^5 or 10^7 CFU/ml
Protocol: Silicone tubing (0.040″ inner-diameter by 0.085″ outer-diameter by 0.023″ wall thickness; VWR International) was cut into 1 cm lengths then cut longitudinally in half. Cut tubing pieces were sterilized overnight in 99% ethanol. Tubing pieces were rinsed in 2 ml of sterile water then incubated overnight at room temperature in 20 mg/ml of either oritavancin or chloroeremomycin solution in water. Control tubing pieces were incubated in water as described. The following day, tubing pieces were rinsed in 2 ml of water then incubated with Staphylococcus epidermis ATCC 35984 at an inoculum density of either 10^5 CFU/ml or 10^7 CFU/ml in tryptic soy broth at 37° C. with rotation at 150 rpm in a rotational incubator. Tubing pieces were rinsed in 2 ml of sterile physiologic saline and bacteria in the biofilm formed on the silicone tubing were recovered by sonicating the tubing pieces in 1 ml of sterile physiologic saline in a sonicating water bath (VWR Aquasonic model 550D). Recovered bacteria were enumerated by serial dilution plating.

MSSA ATCC 29213 [4] = details: absence of 0.002% polysorbate-80; cited from earlier work
[5] = system: vancomycin (VAN)-susceptible Enterococcus faecalis ATCC 29212 (VSE); assay: MBEC plate biofilm eradication; assay type: cell-based; details: 24 h of drug challenge
Text: (§3) The following strains were used for in vitro biofilm studies: vancomycin (VAN)-susceptible Enterococcus faecalis ATCC 29212 (VSE), VAN-resistant E. faecalis ATCC 51299 (VanB VRE), E. faecium ATCC 51559 (VanA VRE), S. epidermidis ATCC 12228 and the slime-producing strain S. epidermidis ATCC 35984. Biofilms were established in MBEC™ Physiology & Genetics Assay plates (Innovotech; Edmonton, Canada).

[6] = system: VAN-resistant E. faecalis ATCC 51299 (VanB VRE); assay: MBEC plate biofilm eradication; assay type: cell-based; details: 24 h of drug challenge
Text: as §3

[7] = system: S. epidermidis ATCC 12228; assay: MBEC plate biofilm eradication; assay type: cell-based; details: single agents
Text: as §3

[8] = system: E. faecium ATCC 51559 (VanA VRE); assay: MBEC plate biofilm eradication; assay type: cell-based; details: 24 h of drug challenge
Text: as §3

S. aureus ATCC 29213 [9] = assay: Short duration (2 h) time-kill in membrane assay buffer; assay type: cell-based
Protocol: Short duration (2 h) time-kill studies were performed in membrane assay buffer (see below) to characterize the killing of S. aureus ATCC 29213 under conditions used in the membrane depolarization and permeability assays. Exponential- and stationary-phase S. aureus ATCC 29213 cells were diluted to an OD600=0.005 (approx 10^6 CFU/mL) in membrane assay buffer (10 mM HEPES-C1, pH 7.5, 50 μg/mL CaCl2) with or without 5 mM glucose, respectively. Experiments were initiated by the addition of antimicrobial agents at the indicated concentrations and bacteria were enumerated by serial-dilution plating.

CN[C@H](CC(C)C)C(=O)N[C@H]1C(=O)N[C@@H](CC(N)=O)C(=O)N[C@H]2C(=O)N[C@H]3C(=O)N[C@H](C(=O)N[C@H](C(=O)O)c4cc(O)cc(O)c4-c4cc3ccc4O)[C@H](O[C@H]3C[C@](C)(N)[C@@H](O)[C@H](C)O3)c3ccc(c(Cl)c3)Oc3cc2cc(c3O[C@@H]2O[C@H](CO)[C@@H](O)[C@H](O)[C@H]2O[C@H]2C[C@](C)(NCc3ccc(-c4ccc(Cl)cc4)cc3)[C@@H](O)[C@H](C)O2)Oc2ccc(cc2Cl)[C@H]1O [Oritavancin, N-(4-(4-chlorophenyl)benzyl)A82846B]
reduction in viable cell counts (MRSA ATCC 33591): approx 0.4 log
reduction in viable cell counts (MSSA ATCC 29213 [1]): approx 2.9 log
activity at the 24-hour time point (VRSA VRS5; stationary-phase inoculum, fCmax 800 (16 μg/mL)): bactericidal (Bacteriostatic and bactericidal activity of the antimicrobial agents were defined as a reduction in viable cell counts of <3 or ≥3 log at 24 hours relative to the starting inoculum, respectively)
decrease in viable cell counts (VRSA VRS5; stationary-phase, fCmax, 24 hours): approx 2.2 log
reduction in viable cell counts (VRSA VRS5; stationary-phase, free-trough concentration 0.5 μg/mL, 24 hours): approx 1.2 log
dissipation of membrane potential (DiSC3(5) fluorescence) (S. aureus ATCC 29213 [2]; exponential-phase cells): occurred in a concentration-dependent manner
dissipation of membrane potential (DiSC3(5) fluorescence) (S. aureus ATCC 29213 [2]; stationary-phase cells): occurred in a concentration-dependent manner
activity on a coated surface against biofilm formation [3]: significant activity
CLSI quality control range of MIC (MSSA ATCC 29213 [4]): 0.5 to 2 mg/L
MBEC [5]: 2 to 4 mg/L
MBEC [6]: 2 to 4 mg/L
MBEC [7]: 2 to 4 mg/L
MBEC [8]: 2 to 4 mg/L
reduction in CFU (S. aureus ATCC 29213 [9]; exponential-phase cells, within 5 minutes, 16 μg/mL): 4 log
reduction in CFU (S. aureus ATCC 29213 [9]; stationary-phase cells, within the 2-hour time period, oritavancin at fCmax 800, daptomycin at fCmax): approximately 1 log
